Results from patent US7012077B2, “Substituted cyclohexane derivatives” (Hoffmann-La Roche Inc., priority 2001, dated 2006).

For `CN(C)CC#C[C@H]1CC[C@H](N(C)c2ncc(Br)cn2)CC1` [Example 2, trans-(5-Bromo-pyrimidin-2-yl)-[4-(3-dimethylamino-prop-1-ynyl)-cyclohexyl]-methyl-amine], which melting point is on record?
The melting point was 83 to 84 °C (dec.).

Which melting point does the source give for `CN(C)C[C@H]1CC[C@H](CCNc2ncc(Br)cn2)CC1` [Example 12, trans-(5-Bromo-pyrimidin-2-yl)-[2-(4-dimethylaminomethyl-cyclohexyl)-ethyl]-amine] here?
Its melting point is 108.3 to 109.5 °C.

For `CN(C)CC#C[C@H]1CC[C@H](CN(C)c2ncc(Br)cn2)CC1` [Example 16, trans-(5-Bromo-pyrimidin-2-yl)-[4-(3-dimethylamino-prop-1-ynyl)-cyclohexylmethyl]-methyl-amine], which melting point is on record?
Its melting point is 71 to 72 °C.

For `CCCc1cnc(N(C)C[C@H]2CC[C@H](C#CCN(C)C)CC2)nc1` [Example 23.1, trans-[4-(3-Dimethylamino-prop-1-ynyl)-cyclohexylmethyl]-methyl-(5-propyl-pyrimidin-2-yl)-amine], which melting point is on record?
The melting point was 49 to 50 °C.
